Experimental data: patent US8173698B2, “Environmental sensitive fluorogenic compounds and their application for singlet oxygen and protein detection” (priority 2003, dated 2012)

What was measured:
[1] = Dependence of fluorescence emission spectra on solvent; assay type: physicochemical; conditions: 1 μM; MeOH and aqueous buffer (50 mM Tris pH 7.5) vs DMSO; excitation 488 nm
Description: Solutions of Compound 5 (1 μM) were prepared in dimethylsulfoxide (DMSO), methanol (MeOH) and aqueous buffer (50 mM Tris pH 7.5). 2 mL portions of these solutions were transferred to 10 mm×10 mm quartz cuvettes and fluorescence emission spectra were recorded on a Hitachi F-4500 spectrofluorometer using identical instrument detection sensitivity settings. Excitation was at 488 nm in all cases. For the DMSO and MeOH solutions, the spectra were re-scanned after addition of a small amount of 0.1 M NaOH to the 2 mL solution sample. Results are plotted in FIG. 3A and FIG. 3B. FIG. 3B represents an approximately 10-fold enlargement on the y-axis of FIG. 3A.

[2] = molecular target: bovine serum albumin (BSA) (Bos taurus, UniProt P02769); conditions: excitation 488 nm
Chain of bovine serum albumin (BSA) (P02769 25-607): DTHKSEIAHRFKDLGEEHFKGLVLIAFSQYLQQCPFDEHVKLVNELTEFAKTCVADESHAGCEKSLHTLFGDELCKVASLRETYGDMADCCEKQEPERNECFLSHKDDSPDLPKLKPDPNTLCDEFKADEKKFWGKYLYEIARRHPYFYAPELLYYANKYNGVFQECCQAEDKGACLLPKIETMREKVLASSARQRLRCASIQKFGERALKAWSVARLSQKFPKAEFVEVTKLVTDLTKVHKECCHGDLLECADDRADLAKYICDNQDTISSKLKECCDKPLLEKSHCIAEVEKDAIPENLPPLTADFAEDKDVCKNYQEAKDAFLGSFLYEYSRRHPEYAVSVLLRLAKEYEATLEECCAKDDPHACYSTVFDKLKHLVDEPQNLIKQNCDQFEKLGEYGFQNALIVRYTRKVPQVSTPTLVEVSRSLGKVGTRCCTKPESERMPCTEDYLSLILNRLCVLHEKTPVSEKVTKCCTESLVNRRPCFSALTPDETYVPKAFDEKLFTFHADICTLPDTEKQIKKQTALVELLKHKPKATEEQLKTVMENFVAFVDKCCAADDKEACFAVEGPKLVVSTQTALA
Description: A solution of Compound 5 (1 μM) was prepared in phosphate-buffered saline (PBS) (50 mM phosphate buffer, pH 7.4, 150 mM NaCl). A 2 mL portion of this solution was transferred to a 10 mm×10 mm quartz cuvette. The fluorescence emission spectrum of the solution was recorded on a Hitachi F-4500 spectrofluorometer using excitation at 488 nm. 1 μL of a 4.5 mM solution of bovine serum albumin (30% (w/v) BSA (Sigma Chemical Co., St. Louis, Mo., catalog number A-7284)) was then added to the 2 mL of aqueous dye solution. The emission scan measurement was then repeated. Further measurements were made as the amount of added BSA was increased up to 4.5 μM.

fluorescence of the dye in MeOH and aqueous buffer relative to that in DMSO [1]: extremely weak fluorescence
change of fluorescence upon binding to BSA ([2]; 1 μM dye in PBS pH 7.4, BSA 0-5 μM): fluorescence enhancement
fluorescence emission peak ([2]; in PBS with BSA): 540 nm
SMILES: CC(=O)O.Cc1c2ccccc2c(-c2cc3c(-c4ccccc4C(=O)O)c4cc(Cl)c(O)cc4oc-3cc2=O)c2ccccc12 [Compound 5]
